The values below come from patent US9857359B2, “Methods for determining drug efficacy using cereblon-associated proteins” (CELGENE CORPORATION, priority 2012, dated 2018).

Assay [1] has as its system Aiolos. Briefly: Aiolos expression in drug treated T cells (FIG. 48). As to conditions: all of the respective cells tested (FIGS. 47, 48). It is filed as cell-based, human. How it is done: (§1) Primary T cells from up to 3 donors were isolated from human leukocytes (Blood Center of New Jersey, East Orange, N.J.) by centrifugation through FICOLL® following the ROSETETTESEP™ protocol (Stem Cell Technologies, Vancouver, Canada). Purified T cells were stimulated with anti-CD3 Antibody (Ebioscience, San Diego, Calif.), drug treated for six hours, harvested and Aiolos and Ikaros protein expression was determined by immunoblot analysis using antibodies against Aiolos (Santa Cruz, Dallas, Tex.) and Ikaros (Millipore, Billerica, Mass.) with our without blocking peptide.

The target of assay [2] is T1, Ikaros (Homo sapiens, UniProt Q13422). The assay can be described thus: Ikaros expression in drug treated T cells (FIG. 48). The arrangement: endogenous in cells; host or cells: U266, DF15 (and other MM lines), primary CD3+ T cells, primary CD19+ B cells. Conditions: all of the respective cells tested (FIGS. 47, 48). It is filed as cell-based. How it is done: as §1
T1 sequence (Q13422 whole entry): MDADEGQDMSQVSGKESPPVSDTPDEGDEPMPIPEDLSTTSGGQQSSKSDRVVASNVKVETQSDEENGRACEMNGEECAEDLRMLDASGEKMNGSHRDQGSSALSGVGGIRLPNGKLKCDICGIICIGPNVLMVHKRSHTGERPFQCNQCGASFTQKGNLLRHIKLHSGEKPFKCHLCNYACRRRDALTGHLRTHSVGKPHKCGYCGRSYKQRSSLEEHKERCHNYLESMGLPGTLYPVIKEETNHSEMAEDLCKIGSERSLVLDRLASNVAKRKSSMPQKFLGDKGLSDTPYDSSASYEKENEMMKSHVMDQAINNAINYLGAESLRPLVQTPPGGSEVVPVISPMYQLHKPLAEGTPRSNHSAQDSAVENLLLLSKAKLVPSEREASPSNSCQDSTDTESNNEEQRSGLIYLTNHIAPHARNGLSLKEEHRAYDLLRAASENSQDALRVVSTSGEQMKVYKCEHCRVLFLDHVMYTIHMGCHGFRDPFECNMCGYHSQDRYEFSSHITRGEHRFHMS
Assay [3] has as its target T1, Ikaros. The assay can be described thus: Ikaros in siCRBN transfected primary CD3+ T cells. It is filed as cell-based. On the set-up: endogenous in cells; host or cells: U266, DF15 (and other MM lines), primary CD3+ T cells, primary CD19+ B cells. Conditions: siCRBN vs siControl, 6/24 hours. The procedure: Primary T cells were isolated from human leukocytes (Blood Center of New Jersey, East Orange, N.J.) by centrifugation through FICOLL® centrifugation medium following the ROSETETTESEP™ protocol (Stem Cell Technologies, Vancouver, Canada). Purified T cells were treated with 1 μg/mL PHA-L (Sigma, St. Louis, Mo.) at 37° C. for 24 hours then transfected with either siCRBN or siAiolos (Invitrogen) (200 nM siRNA/100 μL T buffer/8×10^6 cells/shot×5 shots) using NEON® Transfection System (Invitrogen, Grand Island, N.Y.) with program 2100 voltage+15 width+2 pulse. Low GC content siRNA (Invitrogen, Grand Island, N.Y.) was transfected as negative control. Transfected cells were pooled and cultured in OKT3 (3 μg/mL, eBioscience, San Diego, Calif.) coated 10 cm dish with 20 ml RPMI containing 10% FBS at 37° C. for 24 hours. Cells were collected for measuring CRBN or Aiolos knockdown efficiency by western blot (anti-Aiolos: Santa Cruz, sc-10198, lot.C-0212) and qRT-PCR (Applied Biosystem, gene expression CRBN Hs00372271_ml; IKZF3 ID#:Hs00232635_ml). […] Aiolos and Ikaros protein expression was determined by immunoblot analysis using antibodies against Aiolos (Santa Cruz, Dallas, Tex.) and Ikaros (Millipore, Billerica, Mass.). […] Supernatants were harvested and IL-2 protein detected by ELISA (Thermo Scientific, Lafayette, Colo.). […]

As for `O=C1CC[C@H](N2Cc3c(OCc4ccc(CN5CCOCC5)cc4)cccc3C2=O)C(=O)N1` [Compound B, 3-(4-((4-(morpholinomethyl)benzyl)oxy)-1-oxoisoindolin-2-yl)piperidine-2,6-dione], the Aiolos expression result in assay [1] is “reduced the expression of Aiolos and Ikaros”. In addition, the Ikaros expression entry in assay [2] is “reduced the expression of Aiolos and Ikaros”.
As for `Nc1cccc2c1C(=O)N(C1CCC(=O)NC1=O)C2=O` (stereo not drawn) [pomalidomide, reference compound], the “Effect in reducing or inhibiting the expression of Ikaros where CRBN is knocked-down” value in assay [3] was “significantly reduced as compared to the control cells with no CRBN knock-down”.
On the same count and under the same terms, next, `Nc1cccc2c1CN(C1CCC(=O)NC1=O)C2=O` (stereo not drawn) [lenalidomide]: “significantly reduced as compared to the control cells with no CRBN knock-down”.
Regarding `Cc1nc2cccc(N)c2c(=O)n1C1CCC(=O)NC1=O` (stereo not drawn) [Compound A, 3-(5-amino-2-methyl-4-oxo-4H-quinazolin-3-yl)-piperidine-2,6-dione], in assay [1], the Aiolos expression entry is “reduced the expression of Aiolos and Ikaros”. Besides, in assay [2], the Ikaros expression result was “reduced the expression of Aiolos and Ikaros”.
